The source made the active and inactive calls. The calls are words filed in the database; no cut-off is given here.

The record followed here is ChEMBL document CHEMBL1759897, “Discovery of non-peptide, small molecule antagonists of α9α10 nicotinic acetylcholine receptors as novel analgesics for the treatment of neuropathic and tonic inflammatory pain” (Bioorg Med Chem Lett, 2011).

For assay [1], the target named is Neuronal acetylcholine receptor; alpha9/alpha10 (Homo sapiens) (UniProt Q9UGM1+Q9GZZ6). As to the kind of experiment: Antagonist activity at alpha9/alpha10 nAChR expressed in Xenopus oocyte assessed as inhibition of ACh-gated current response at 100 nM by voltage clamp electrophysiology assay. The assay is classed as functional. Also noted: scale not given: the % may be the effect or the level left.

The species named for assay [2] is Rattus norvegicus. Put plainly: Analgesic activity in rat inflammatory pain model assessed reduction formalin-induced inflammatory pain. The assay is classed as functional, organism-based.
For assay [3], the species on record is Rattus norvegicus. As to the kind of experiment: Analgesic activity in rat pain model by tail flick test. The assay is classed as functional, organism-based.
The species entered for assay [4] is Rattus norvegicus. Put plainly: Analgesic activity in rat chronic constriction nerve injury model of neuropathic pain assessed as reversal of mechanical hyperalgesia. The assay is classed as functional, organism-based.
Assay [5] deals with Rattus norvegicus. As to the kind of experiment: Analgesic activity in rat chronic constriction nerve injury model of neuropathic pain assessed as reversal of mechanical hyperalgesia measured after repeated dosing for 7 days. In kind it is functional, organism-based.
Assay [6] deals with Neuronal acetylcholine receptor subunit alpha-7 (Homo sapiens, UniProt P36544). As to the kind of experiment: Antagonist activity at alpha7 nAChR expressed in Xenopus oocyte assessed as inhibition of ACh-gated current by voltage clamp electrophysiology assay. In kind it is functional.
The target in assay [7] is Neuronal acetylcholine receptor; alpha9/alpha10 (Homo sapiens, UniProt Q9GZZ6+Q9UGM1). As to the kind of experiment: Antagonist activity at alpha9/alpha10 nAChR expressed in Xenopus oocyte assessed as inhibition of ACh-gated current by voltage clamp electrophysiology assay. In kind it is functional.
Assay [8] addresses Neuronal acetylcholine receptor; alpha4/beta2 (Homo sapiens, UniProt P17787+P43681). Put plainly: Inhibition of alpha4beta2 nAChR. In kind it is protein-complex assay.
The target of assay [9] is Neuronal acetylcholine receptor; alpha3/beta4 (Homo sapiens, UniProt P30926+P32297). Put plainly: Inhibition of alpha3beta4 nAChR. The assay is classed as protein-complex assay.
A short description of assay [10]: Inhibition of muscle nAChR. The assay is classed as tissue-based, Muscle tissue.

Neuronal acetylcholine receptor; alpha9/alpha10, sequence (Q9UGM1 whole entry): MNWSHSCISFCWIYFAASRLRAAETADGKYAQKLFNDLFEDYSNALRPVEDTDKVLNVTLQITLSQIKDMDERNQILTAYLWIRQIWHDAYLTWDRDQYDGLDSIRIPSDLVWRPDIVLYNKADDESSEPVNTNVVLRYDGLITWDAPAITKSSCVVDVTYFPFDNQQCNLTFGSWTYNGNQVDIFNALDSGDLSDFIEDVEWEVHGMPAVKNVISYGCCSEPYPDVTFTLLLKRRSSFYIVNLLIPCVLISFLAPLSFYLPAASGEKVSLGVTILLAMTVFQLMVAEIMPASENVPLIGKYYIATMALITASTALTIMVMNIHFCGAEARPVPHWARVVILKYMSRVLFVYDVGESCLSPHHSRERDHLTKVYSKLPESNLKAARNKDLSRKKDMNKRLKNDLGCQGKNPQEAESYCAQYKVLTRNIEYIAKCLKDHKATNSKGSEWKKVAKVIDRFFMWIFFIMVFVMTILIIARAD
Neuronal acetylcholine receptor; alpha9/alpha10, sequence (Q9GZZ6 whole entry): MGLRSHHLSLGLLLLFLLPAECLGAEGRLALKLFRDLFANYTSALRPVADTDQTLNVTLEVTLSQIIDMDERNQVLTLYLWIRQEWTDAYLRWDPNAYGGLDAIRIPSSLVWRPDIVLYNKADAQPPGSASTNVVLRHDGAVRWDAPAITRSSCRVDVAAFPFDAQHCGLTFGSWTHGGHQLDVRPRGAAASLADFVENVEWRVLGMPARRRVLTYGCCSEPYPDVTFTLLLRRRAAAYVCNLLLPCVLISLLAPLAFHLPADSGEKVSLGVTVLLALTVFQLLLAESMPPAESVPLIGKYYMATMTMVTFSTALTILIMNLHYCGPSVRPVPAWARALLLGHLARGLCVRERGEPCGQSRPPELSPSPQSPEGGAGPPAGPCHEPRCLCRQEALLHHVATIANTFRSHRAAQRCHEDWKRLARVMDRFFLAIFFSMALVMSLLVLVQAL
Neuronal acetylcholine receptor subunit alpha-7, sequence (P36544 whole entry): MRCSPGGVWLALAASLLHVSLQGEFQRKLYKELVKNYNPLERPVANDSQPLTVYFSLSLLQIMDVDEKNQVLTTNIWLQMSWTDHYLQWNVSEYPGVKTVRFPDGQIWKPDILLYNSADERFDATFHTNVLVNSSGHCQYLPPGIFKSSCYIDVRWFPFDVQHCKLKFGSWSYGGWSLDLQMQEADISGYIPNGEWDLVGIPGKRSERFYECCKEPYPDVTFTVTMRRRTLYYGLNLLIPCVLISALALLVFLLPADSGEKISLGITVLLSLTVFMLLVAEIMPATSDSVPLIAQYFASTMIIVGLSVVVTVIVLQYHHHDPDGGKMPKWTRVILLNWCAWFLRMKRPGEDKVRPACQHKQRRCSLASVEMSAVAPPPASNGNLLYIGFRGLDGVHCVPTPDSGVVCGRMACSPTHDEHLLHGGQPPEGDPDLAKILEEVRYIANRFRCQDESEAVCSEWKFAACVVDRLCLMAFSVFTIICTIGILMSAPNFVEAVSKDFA
Neuronal acetylcholine receptor; alpha3/beta4, sequence (P30926 whole entry): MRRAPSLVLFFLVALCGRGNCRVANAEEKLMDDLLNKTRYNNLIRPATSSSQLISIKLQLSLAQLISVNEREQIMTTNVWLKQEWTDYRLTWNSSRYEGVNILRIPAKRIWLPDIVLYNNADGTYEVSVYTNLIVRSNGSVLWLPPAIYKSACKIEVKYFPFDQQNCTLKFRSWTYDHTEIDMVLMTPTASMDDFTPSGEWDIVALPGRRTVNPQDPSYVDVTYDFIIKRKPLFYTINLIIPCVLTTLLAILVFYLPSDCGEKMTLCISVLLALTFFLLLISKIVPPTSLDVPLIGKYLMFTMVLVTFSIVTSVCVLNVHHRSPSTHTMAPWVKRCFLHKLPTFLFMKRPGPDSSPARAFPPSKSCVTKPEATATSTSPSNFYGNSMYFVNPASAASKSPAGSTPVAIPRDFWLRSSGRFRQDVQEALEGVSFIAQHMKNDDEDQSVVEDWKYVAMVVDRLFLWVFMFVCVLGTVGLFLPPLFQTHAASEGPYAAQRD
Neuronal acetylcholine receptor; alpha3/beta4, sequence (P32297 whole entry): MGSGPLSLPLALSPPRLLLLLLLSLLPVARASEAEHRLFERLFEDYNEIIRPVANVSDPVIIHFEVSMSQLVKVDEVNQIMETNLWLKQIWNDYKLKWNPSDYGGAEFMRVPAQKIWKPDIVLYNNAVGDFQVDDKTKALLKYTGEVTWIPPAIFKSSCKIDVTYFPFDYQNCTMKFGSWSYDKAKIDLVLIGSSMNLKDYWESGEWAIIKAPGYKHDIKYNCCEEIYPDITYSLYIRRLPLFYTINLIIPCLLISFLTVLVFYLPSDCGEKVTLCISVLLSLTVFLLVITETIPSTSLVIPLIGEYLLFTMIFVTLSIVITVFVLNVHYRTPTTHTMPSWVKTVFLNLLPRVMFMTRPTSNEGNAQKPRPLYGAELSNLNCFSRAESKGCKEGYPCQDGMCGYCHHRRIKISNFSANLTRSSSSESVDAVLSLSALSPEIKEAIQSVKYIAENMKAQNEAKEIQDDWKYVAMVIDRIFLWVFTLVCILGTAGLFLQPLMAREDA
Neuronal acetylcholine receptor; alpha4/beta2, sequence (P17787 whole entry): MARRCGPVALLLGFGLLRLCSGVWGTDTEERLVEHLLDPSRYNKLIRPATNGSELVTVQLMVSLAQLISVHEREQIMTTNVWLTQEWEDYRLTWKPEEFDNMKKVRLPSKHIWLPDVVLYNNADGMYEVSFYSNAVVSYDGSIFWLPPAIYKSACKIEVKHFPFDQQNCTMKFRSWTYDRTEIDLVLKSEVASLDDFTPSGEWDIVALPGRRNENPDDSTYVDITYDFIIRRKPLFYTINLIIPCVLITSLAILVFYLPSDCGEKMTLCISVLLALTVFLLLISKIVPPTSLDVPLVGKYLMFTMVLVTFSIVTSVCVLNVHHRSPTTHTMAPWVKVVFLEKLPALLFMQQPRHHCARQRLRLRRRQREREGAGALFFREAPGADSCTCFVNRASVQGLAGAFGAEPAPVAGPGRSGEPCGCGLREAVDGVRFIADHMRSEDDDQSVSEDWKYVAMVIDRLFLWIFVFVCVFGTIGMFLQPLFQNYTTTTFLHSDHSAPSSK
Neuronal acetylcholine receptor; alpha4/beta2, sequence (P43681 whole entry): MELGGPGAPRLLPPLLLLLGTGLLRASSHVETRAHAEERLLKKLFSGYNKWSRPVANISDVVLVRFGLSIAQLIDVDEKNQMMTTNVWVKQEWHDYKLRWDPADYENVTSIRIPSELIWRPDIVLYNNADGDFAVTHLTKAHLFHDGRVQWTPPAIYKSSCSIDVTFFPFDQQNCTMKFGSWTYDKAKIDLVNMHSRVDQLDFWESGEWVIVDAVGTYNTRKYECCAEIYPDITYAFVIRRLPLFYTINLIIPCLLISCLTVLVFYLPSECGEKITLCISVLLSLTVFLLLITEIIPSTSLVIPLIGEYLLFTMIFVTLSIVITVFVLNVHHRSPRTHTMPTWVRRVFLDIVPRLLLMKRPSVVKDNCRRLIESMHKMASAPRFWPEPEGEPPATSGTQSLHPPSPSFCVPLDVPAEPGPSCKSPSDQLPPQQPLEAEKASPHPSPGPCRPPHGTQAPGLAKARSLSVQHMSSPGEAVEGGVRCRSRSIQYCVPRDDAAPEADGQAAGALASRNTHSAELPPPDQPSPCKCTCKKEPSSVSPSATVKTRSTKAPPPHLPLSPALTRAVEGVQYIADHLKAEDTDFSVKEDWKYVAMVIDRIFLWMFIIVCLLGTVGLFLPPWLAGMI

Consider `Cc1cc(C)c[n+](CCCCCc2ccccc2CCCCC[n+]2cc(C)cc(C)c2)c1`, for which the Activity in assay [1] stood at 124%.
Still for that read-out and setting: the same measure for `C(#Cc1cccc(C#CCCC[n+]2cccc3ccccc32)c1)CCC[n+]1cccc2ccccc21`: 41.6%; for `C(#Cc1cc(C#CCCC[n+]2cccc(-c3ccccc3)c2)cc(C#CCCC[n+]2cccc(-c3ccccc3)c2)c1)CCC[n+]1cccc(-c2ccccc2)c1`: 5.5%; for `Cc1cc(C)c[n+](CCCC#Cc2cc(C#CCCC[n+]3cc(C)cc(C)c3)c(C#CCCC[n+]3cc(C)cc(C)c3)cc2C#CCCC[n+]2cc(C)cc(C)c2)c1`: 0.3%.
Still for that read-out and setting: with `Cc1cc[n+](CCCC#Cc2cccc(C#CCCC[n+]3ccc(C)c(C)c3)c2)cc1C` the figure was 76.9%.
`c1ccc2c(c1)ccc[n+]2CCCCCc1cc(CCCCC[n+]2cccc3ccccc32)cc(CCCCC[n+]2cccc3ccccc32)c1`: the result in the assay filed under Rattus norvegicus [2] was Active. Besides, the result in the assay filed under Rattus norvegicus [3] and in the assay on Rattus norvegicus [5] was inactive. Moreover, the Activity entry in the assay filed under Rattus norvegicus [4] was “Dose-dependent effect”; in [1] it was 15.9%.
`Cc1cc(C)c[n+](CCCC#Cc2cc(C#CCCC[n+]3cc(C)cc(C)c3)cc(C#CCCC[n+]3cc(C)cc(C)c3)c2)c1`: the Activity in assay [1] amounted to 66%.
With `c1ccc2c[n+](CCCCCc3cc(CCCCC[n+]4ccc5ccccc5c4)cc(CCCCC[n+]4ccc5ccccc5c4)c3)ccc2c1`, in assay [1], the Activity came out at 6.9%.
The same measure, in the same setting: the same measure for `C(#Cc1cc(C#CCCC[n+]2cccc3ccccc32)cc(C#CCCC[n+]2cccc3ccccc32)c1)CCC[n+]1cccc2ccccc21`: 10.5%; for `Cc1cc(C)c[n+](CCCCCc2cc(CCCCC[n+]3cc(C)cc(C)c3)cc(CCCCC[n+]3cc(C)cc(C)c3)c2)c1`: 79.8%.
Usually IC50 stands for the concentration that inhibits the measured activity by half. Consider `c1ccc(-c2ccc[n+](CCCCCc3cc(CCCCC[n+]4cccc(-c5ccccc5)c4)c(CCCCC[n+]4cccc(-c5ccccc5)c4)cc3CCCCC[n+]3cccc(-c4ccccc4)c3)c2)cc1`, for which the figures for the IC50 in assay [6] and in [7] were 99 nM and 5.4 nM, respectively. Besides, the Activity in [1] amounted to 6.5%.
Regarding `Cc1cc(C)c[n+](CCC#Cc2ccc(C#CCC[n+]3cc(C)cc(C)c3)cc2)c1`, the Activity in [1] was 76.2%.
On the same count and under the same terms, with `CCCCc1ccc[n+](CCCCCc2cc(CCCCC[n+]3cccc(CCCC)c3)cc(CCCCC[n+]3cccc(CCCC)c3)c2)c1` the figure was 16.1%; with `Cc1cc(C)c[n+](CCCCc2ccc(CCCC[n+]3cc(C)cc(C)c3)cc2)c1`, 97.1%.
As to `Cc1cc[n+](CCCCCc2ccccc2CCCCC[n+]2ccc(C)c(C)c2)cc1C`, the Activity in assay [1] is 72%.
Consider `Cc1cc(C)c[n+](CCCCCc2cc(CCCCC[n+]3cc(C)cc(C)c3)c(CCCCC[n+]3cc(C)cc(C)c3)cc2CCCCC[n+]2cc(C)cc(C)c2)c1`, for which the Activity in [1] stood at 0.6%.
The same measure, in the same setting: with `CCCCc1ccc[n+](CCCC#Cc2cc(C#CCCC[n+]3cccc(CCCC)c3)cc(C#CCCC[n+]3cccc(CCCC)c3)c2)c1` the figure was 36.1%.
As for `C(#Cc1cc(C#CCCC[n+]2cccc(-c3ccccc3)c2)c(C#CCCC[n+]2cccc(-c3ccccc3)c2)cc1C#CCCC[n+]1cccc(-c2ccccc2)c1)CCC[n+]1cccc(-c2ccccc2)c1`, the IC50 in [8] amounted to 3800 nM; in [9] it was 800 nM; in [10] it was 120 nM. The result in the assay filed under Rattus norvegicus [2] was Active. Besides, the outcome in the assay filed under Rattus norvegicus [3] and with Rattus norvegicus [5] was inactive. Moreover, the Activity entry in the assay listed under Rattus norvegicus [4] was “Dose-dependent effect”; in assay [1], 0.3%.
As for `c1ccc(CCCCC[n+]2cccc3ccccc32)c(CCCCC[n+]2cccc3ccccc32)c1`, the Activity in [1] worked out at 10.9%.
On the same count and under the same terms, with `Cc1cc[n+](CCCCCc2cc(CCCCC[n+]3ccc(C)c(C)c3)cc(CCCCC[n+]3ccc(C)c(C)c3)c2)cc1C` the figure was 62.7%; with `c1ccc(CCCCC[n+]2ccc3ccccc3c2)c(CCCCC[n+]2ccc3ccccc3c2)c1`, 31.1%; with `Cc1cc[n+](CCCC#Cc2ccccc2C#CCCC[n+]2ccc(C)c(C)c2)cc1C`, 31.3%.
On the same count and under the same terms, with `Cc1cc[n+](CCCCCc2cc(CCCCC[n+]3ccc(C)c(C)c3)c(CCCCC[n+]3ccc(C)c(C)c3)cc2CCCCC[n+]2ccc(C)c(C)c2)cc1C` the figure was 11%; with `Cc1cc(C)c[n+](CCCC#Cc2ccccc2C#CCCC[n+]2cc(C)cc(C)c2)c1`, 67.6%.
The same measure, in the same setting: with `c1cc(CCCCC[n+]2ccc3ccccc3c2)cc(CCCCC[n+]2ccc3ccccc3c2)c1` the figure was 37.5%; with `C(#Cc1ccccc1C#CCCC[n+]1ccc2ccccc2c1)CCC[n+]1ccc2ccccc2c1`, 28%; with `C(#Cc1cccc(C#CCCC[n+]2ccc3ccccc3c2)c1)CCC[n+]1ccc2ccccc2c1`, 39.7%.
On to `Cc1cc[n+](CCCCc2ccc(CCCC[n+]3ccc(C)c(C)c3)cc2)cc1C`, for which the Activity in [1] was determined as 36.7%.
As for `Cc1cc[n+](CCCC#Cc2cc(C#CCCC[n+]3ccc(C)c(C)c3)cc(C#CCCC[n+]3ccc(C)c(C)c3)c2)cc1C`, the Activity in assay [1] was found to be 61.1%.
With `Cc1cc(C)c[n+](CCCc2ccc(-c3ccc(CCC[n+]4cc(C)cc(C)c4)cc3)cc2)c1`, in assay [1], the Activity was determined as 114%.
Regarding `c1ccc(-c2ccc[n+](CCCCCc3cc(CCCCC[n+]4cccc(-c5ccccc5)c4)cc(CCCCC[n+]4cccc(-c5ccccc5)c4)c3)c2)cc1`, the Activity in assay [1] worked out at 3.84%.
`Cc1cc[n+](CCCC#Cc2cc(C#CCCC[n+]3ccc(C)c(C)c3)c(C#CCCC[n+]3ccc(C)c(C)c3)cc2C#CCCC[n+]2ccc(C)c(C)c2)cc1C`: the Activity in assay [1] worked out at 47.4%.
In the case of `Cc1cc[n+](CC#Cc2ccc(-c3ccc(C#CC[n+]4ccc(C)c(C)c4)cc3)cc2)cc1C`, the values for the IC50 in assay [6] and in [7] were 1190 nM and 16 nM, respectively. Moreover, the outcome in the assay listed under Rattus norvegicus [2] was Active. The outcome in the assay filed under Rattus norvegicus [3] and in the assay on Rattus norvegicus [5] was inactive. Also, the Activity entry in the assay listed under Rattus norvegicus [4] is “Dose-dependent effect”; in [1] it was 8.1%.
Consider `C(#Cc1cccc(C#CCCC[n+]2cccc(-c3ccccc3)c2)c1)CCC[n+]1cccc(-c2ccccc2)c1`, for which the Activity in assay [1] amounted to 23.2%.
Still for that read-out and setting: with `c1ccc2c[n+](CCCCCc3cc(CCCCC[n+]4ccc5ccccc5c4)c(CCCCC[n+]4ccc5ccccc5c4)cc3CCCCC[n+]3ccc4ccccc4c3)ccc2c1` the figure was 17.9%.
Same read-out and setting: with `Cc1cc[n+](CCCCCc2cccc(CCCCC[n+]3ccc(C)c(C)c3)c2)cc1C` the figure was 62.7%; with `Cc1cc[n+](CCC#Cc2ccc(C#CCC[n+]3ccc(C)c(C)c3)cc2)cc1C`, 10.6%; with `C(#Cc1cc(C#CCCC[n+]2ccc3ccccc3c2)c(C#CCCC[n+]2ccc3ccccc3c2)cc1C#CCCC[n+]1ccc2ccccc2c1)CCC[n+]1ccc2ccccc2c1`, 11.6%.
On the same count and under the same terms, the same measure for `c1cc(CCCCC[n+]2cccc3ccccc32)cc(CCCCC[n+]2cccc3ccccc32)c1`: 42.6%; for `Cc1cc[n+](CCCc2ccc(-c3ccc(CCC[n+]4ccc(C)c(C)c4)cc3)cc2)cc1C`: 89.3%.
